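Cells were grown in 96-well plates and exposed to each compound for 48 hours at five concentrations; endpoints were interpolated linearly between bracketing concentrations, or set to the highest concentration if not reached. GI50 marks 50% less growth. At the TGI there is no net growth.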 A value given as a limit tells only on which side of the number the result lay.

The first test concerns A498 renal. Briefly: growth of human tumour cells (NCI), 48 h.
With `CC(C)C(=O)NS(=O)(=O)c1ccccc1`, the TGI is above 100 µM.

The molecule `COC1(OC)CC2C(=O)N(Cc3ccccc3)C1C=C2S(=O)(=O)c1ccccc1` (configuration not stated) yielded a TGI of 45 µM.

`CC(=O)[O][Ga]([Br])[O]C(C)=O`: the GI50 was above 100 µM and the TGI is above 100 µM.

`COc1cc2c(OC)cc1CSCc1sc(C)c(c1Br)CSC2` gave a TGI above 100 µM.

For `CC(C)N(C(=O)C12C3C4C1(I)C1C2C3(I)C41C(=O)N(C(C)C)C(C)C)C(C)C` (configuration not stated), the TGI is above 100 µM.

`Cc1cccc(C)c1NC(=O)C(=O)C(C(=O)c1ccccc1-c1ccccc1)C1OC(=O)c2ccccc21` (configuration not stated) showed a TGI of 48.9 µM.

Molecule `CC1COC(C)(C)P(=O)(c2ccccc2)C1` (configuration not stated) returned a TGI above 100 µM.

For the molecule `Cc1ccc(S(=O)(=O)c2ccc(N)cc2)cc1`, the TGI is above 100 µM.

In the case of `CCOP(=O)(OCC)OC1C=CC2CCC1C2` (configuration not stated), the TGI was above 100 µM.

On to `O=Cc1ccc2c(c1-c1c(C=O)ccc3c1OCO3)OCO2`, for which the TGI was above 100 µM.

The next test has as its system A549 NSCLC. Briefly: growth of human tumour cells (NCI), 48 h.
`CC(C)C(=O)NS(=O)(=O)c1ccccc1` returned a TGI above 100 µM.

In the case of `COC1(OC)CC2C(=O)N(Cc3ccccc3)C1C=C2S(=O)(=O)c1ccccc1` (configuration not stated), the TGI amounted to 64.2 µM.

As for `CC(=O)[O][Ga]([Br])[O]C(C)=O`, the GI50 is above 100 µM and the TGI was above 100 µM.

`COc1cc2c(OC)cc1CSCc1sc(C)c(c1Br)CSC2` came in with a TGI above 100 µM.

As to `CC(C)N(C(=O)C12C3C4C1(I)C1C2C3(I)C41C(=O)N(C(C)C)C(C)C)C(C)C` (configuration not stated), the TGI was above 100 µM.

In turn, `Cc1cccc(C)c1NC(=O)C(=O)C(C(=O)c1ccccc1-c1ccccc1)C1OC(=O)c2ccccc21` (configuration not stated) returned a TGI of 72.5 µM.

The molecule `CC1COC(C)(C)P(=O)(c2ccccc2)C1` (configuration not stated) had a TGI above 100 µM.

With `Cc1ccc(S(=O)(=O)c2ccc(N)cc2)cc1`, the TGI was above 100 µM.

Turning to `CCOP(=O)(OCC)OC1C=CC2CCC1C2` (configuration not stated), the TGI is above 100 µM.

The molecule `COC(=O)/C=C1\CCC(C)O1` (configuration not stated) yielded a TGI above 100 µM.

The molecule `CCCO/S(=N\S(=O)(=O)c1ccccc1)c1ccccc1[N+](=O)[O-]` (configuration not stated) gave a TGI above 100 µM.

Regarding `C/C(CC(=O)Nc1cccc(Cl)c1C)=N\NC(=O)c1ccncc1`, the TGI is above 100 µM.

As to `O=Cc1ccc2c(c1-c1c(C=O)ccc3c1OCO3)OCO2`, the TGI was above 100 µM.

The next test concerns HCC-2998 colon. Briefly: growth of human tumour cells (NCI), 48 h.
The molecule `CC(C)C(=O)NS(=O)(=O)c1ccccc1` came in with a TGI above 100 µM.

Consider `COC1(OC)CC2C(=O)N(Cc3ccccc3)C1C=C2S(=O)(=O)c1ccccc1` (configuration not stated), for which the TGI was 33.6 µM.

As to `COc1cc2c(OC)cc1CSCc1sc(C)c(c1Br)CSC2`, the TGI was above 100 µM.

Turning to `CC(C)N(C(=O)C12C3C4C1(I)C1C2C3(I)C41C(=O)N(C(C)C)C(C)C)C(C)C` (configuration not stated), the TGI was above 100 µM.

`Cc1cccc(C)c1NC(=O)C(=O)C(C(=O)c1ccccc1-c1ccccc1)C1OC(=O)c2ccccc21` (configuration not stated) had a TGI of 29.7 µM.

`CC1COC(C)(C)P(=O)(c2ccccc2)C1` (configuration not stated): the TGI is above 100 µM.

`Cc1ccc(S(=O)(=O)c2ccc(N)cc2)cc1` had a TGI above 100 µM.

Regarding `CCOP(=O)(OCC)OC1C=CC2CCC1C2` (configuration not stated), the TGI was above 100 µM.

Regarding `COC(=O)/C=C1\CCC(C)O1` (configuration not stated), the TGI was above 100 µM.

For the molecule `CCCO/S(=N\S(=O)(=O)c1ccccc1)c1ccccc1[N+](=O)[O-]` (configuration not stated), the TGI is above 100 µM.

For the molecule `C/C(CC(=O)Nc1cccc(Cl)c1C)=N\NC(=O)c1ccncc1`, the TGI is above 100 µM.

`O=Cc1ccc2c(c1-c1c(C=O)ccc3c1OCO3)OCO2` came in with a TGI above 100 µM.

The test system of a further test is M14 melanoma. Briefly: growth of human tumour cells (NCI), 48 h.
Take `CC(C)C(=O)NS(=O)(=O)c1ccccc1`: the TGI is above 100 µM.

In the case of `COC1(OC)CC2C(=O)N(Cc3ccccc3)C1C=C2S(=O)(=O)c1ccccc1` (configuration not stated), the TGI is 35 µM.

With `CC(=O)[O][Ga]([Br])[O]C(C)=O`, the GI50 was above 100 µM and the TGI is above 100 µM.

For `COc1cc2c(OC)cc1CSCc1sc(C)c(c1Br)CSC2`, the TGI is above 100 µM.

As for `CC(C)N(C(=O)C12C3C4C1(I)C1C2C3(I)C41C(=O)N(C(C)C)C(C)C)C(C)C` (configuration not stated), the TGI is above 100 µM.

Take `Cc1cccc(C)c1NC(=O)C(=O)C(C(=O)c1ccccc1-c1ccccc1)C1OC(=O)c2ccccc21` (configuration not stated): the TGI came out at 29.3 µM.

Turning to `CC1COC(C)(C)P(=O)(c2ccccc2)C1` (configuration not stated), the TGI was above 100 µM.

For the molecule `Cc1ccc(S(=O)(=O)c2ccc(N)cc2)cc1`, the TGI was above 100 µM.

Turning to `CCOP(=O)(OCC)OC1C=CC2CCC1C2` (configuration not stated), the TGI is above 100 µM.

The molecule `COC(=O)/C=C1\CCC(C)O1` (configuration not stated) had a TGI above 100 µM.

As for `CCCO/S(=N\S(=O)(=O)c1ccccc1)c1ccccc1[N+](=O)[O-]` (configuration not stated), the TGI was above 100 µM.

The molecule `C/C(CC(=O)Nc1cccc(Cl)c1C)=N\NC(=O)c1ccncc1` showed a TGI above 100 µM.

On to `O=Cc1ccc2c(c1-c1c(C=O)ccc3c1OCO3)OCO2`, for which the TGI is above 100 µM.

The next test concerns NCI-H226 lung. Briefly: growth of human tumour cells (NCI), 48 h.
Molecule `CC(C)C(=O)NS(=O)(=O)c1ccccc1` yielded a TGI above 100 µM.

`COC1(OC)CC2C(=O)N(Cc3ccccc3)C1C=C2S(=O)(=O)c1ccccc1` (configuration not stated) came in with a TGI of 47.3 µM.

In the case of `CC(=O)[O][Ga]([Br])[O]C(C)=O`, the GI50 was above 100 µM and the TGI was above 100 µM.

For the molecule `COc1cc2c(OC)cc1CSCc1sc(C)c(c1Br)CSC2`, the TGI is above 100 µM.

For `CC(C)N(C(=O)C12C3C4C1(I)C1C2C3(I)C41C(=O)N(C(C)C)C(C)C)C(C)C` (configuration not stated), the TGI is above 100 µM.

These data come from PubChem BioAssay (NCI).
